target: unphosphorylated-BTK kinase domain (UP-BTK), GST-tagged human BTK (389-659aa) (Homo sapiens (Human), UniProt Q06187); test: BTK Kinase Lanthascreen Binding Assay; conditions: Lanthascreen binding, 60 minutes incubation; pIC50 = negative log of the IC50 in molar
Method: BTK Kinase Lanthascreen Binding Assay:
A BTK kinase lanthascreen binding assay monitors compound binding to unphosphorylated-BTK kinase domain (UP-BTK), by competing with a fluorescent labeled tracer. […] Data were analyzed using Xlfit™ version 5.3 from ID Business Solutions (Guildford), Microsoft Excel add-in. pIC50 refers to the negative log of the IC50 in molar.

Sequence of unphosphorylated-BTK kinase domain (UP-BTK), GST-tagged human BTK (389-659aa) (Q06187 389-659): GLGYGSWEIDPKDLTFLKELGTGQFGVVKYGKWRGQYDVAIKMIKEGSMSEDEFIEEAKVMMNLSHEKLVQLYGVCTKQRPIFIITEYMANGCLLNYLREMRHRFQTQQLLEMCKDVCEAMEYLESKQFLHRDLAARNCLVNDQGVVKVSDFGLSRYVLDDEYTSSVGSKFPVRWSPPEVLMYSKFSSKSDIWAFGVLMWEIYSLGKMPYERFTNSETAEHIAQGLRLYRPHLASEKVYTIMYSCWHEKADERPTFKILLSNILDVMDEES

Row | SMILES | BTK_I_binding pIC50
1 | C=CC(=O)N[C@@H]1CCC[C@H]1NC(=O)c1sc2nccc3c2c1NC(=O)N3c1cnc(Oc2ccccc2)cn1 [Example 311, N-((1R,2R)-2-Acrylamidocyclopentyl)-4-oxo-5-(5-phenoxypyrazin-2-yl)-4,5-dihydro-3H-1-thia-3,5,8-triazaacenaphthylene-2-carboxamide] | 7.57
2 | C=CC(=O)N[C@@H]1CCC[C@H]1NC(=O)c1sc2nccc3c2c1NC(=O)N3c1cnc(Oc2ccccc2)nc1 [Example 314, N-((1R,2R)-2-Acrylamidocyclopentyl)-4-oxo-5-(2-phenoxypyrimidin-5-yl)-4,5-dihydro-3H-1-thia-3,5,8-triazaacenaphthylene-2-carboxamide] | 7.14
3 | C=CC(=O)N[C@H]1CCC[C@H]1NC(=O)c1sc2nccc3c2c1NC(=O)N3c1ccnc(-c2cccnc2)c1 [Example 317, 5-([2,3′-Bipyridin]-4-yl)-N-((1R,2S)-2-acrylamidocyclopentyl)-4-oxo-4,5-dihydro-3H-1-thia-3,5,8-triazaacenaphthylene-2-carboxamide] | 7.74
4 | C=CC(=O)N[C@@H]1CC[C@H](NC(=O)c2sc3nccc4c3c2NC(=O)N4c2cnc(Oc3ccccc3)nc2)C1 [Example 319, N-((1S,3R)-3-Acrylamidocyclopentyl)-4-oxo-5-(2-phenoxypyrimidin-5-yl)-4,5-dihydro-3H-1-thia-3,5,8-triazaacenaphthylene-2-carboxamide] | 7.21
5 | C=CC(=O)N[C@H]1CCC[C@H]1NC(=O)c1sc2nccc3c2c1NC(=O)N3c1cc(-c2ccccc2)cnn1 [Example 320, N-((1R,2S)-2-Acrylamidocyclopentyl)-4-oxo-5-(5-phenylpyridazin-3-yl)-4,5-dihydro-3H-1-thia-3,5,8-triazaacenaphthylene-2-carboxamide] | 7.23
6 | C=CC(=O)N[C@@H]1CCC[C@H]1NC(=O)c1sc2nccc3c2c1NC(=O)N3c1cccc(-c2cccnc2)c1 [Example 324, N-((1R,2R)-2-Acrylamidocyclopentyl)-4-oxo-5-(3-(pyridin-3-yl)phenyl)-4,5-dihydro-3H-1-thia-3,5,8-triazaacenaphthylene-2-carboxamide] | 6.90
7 | C=CC(=O)N[C@H]1CCC[C@H]1NC(=O)c1sc2nccc3c2c1NC(=O)N3c1ccnc(-c2ccccn2)c1 [Example 325, 5-([2,2′-Bipyridin]-4-yl)-N-((1R,2S)-2-acrylamidocyclopentyl)-4-oxo-4,5-dihydro-3H-1-thia-3,5,8-triazaacenaphthylene-2-carboxamide] | 7.07
8 | C=CC(=O)N[C@@H]1CCC[C@H]1NC(=O)c1sc2nccc3c2c1NC(=O)N3c1ccnc(-c2cccnc2)c1 [Example 326, 5-([2,3′-Bipyridin]-4-yl)-N-((1R,2R)-2-acrylamidocyclopentyl)-4-oxo-4,5-dihydro-3H-1-thia-3,5,8-triazaacenaphthylene-2-carboxamide] | 6.72
9 | C=CC(=O)N[C@@H]1CCC[C@H]1NC(=O)c1sc2nccc3c2c1NC(=O)N3c1cccc(-c2ccccn2)c1 [Example 327, N-((1R,2R)-2-Acrylamidocyclopentyl)-4-oxo-5-(3-(pyridin-2-yl)phenyl)-4,5-dihydro-3H-1-thia-3,5,8-triazaacenaphthylene-2-carboxamide] | 6.98
10 | C=CC(=O)N[C@H]1CCC[C@H]1NC(=O)c1sc2nccc3c2c1NC(=O)N3c1cnc(NC(C)C)cc1C [Example 330, N-((1R,2S)-2-Acrylamidocyclopentyl)-5-(6-(isopropylamino)-4-methylpyridin-3-yl)-4-oxo-4,5-dihydro-3H-1-thia-3,5,8-triazaacenaphthylene-2-carboxamide] | 6.69
11 | CC(C)c1cc(N2C(=O)Nc3c(C(=O)N[C@@H]4CCC[C@H]4N)sc4nccc2c34)ccn1 [Example 336, N-((1R,2R)-2-Aminocyclopentyl)-5-(2-isopropylpyridin-4-yl)-4-oxo-4,5-dihydro-3H-1-thia-3,5,8-triazaacenaphthylene-2-carboxamide] | 6.01
12 | C=CC(=O)N[C@@H]1CCC[C@H]1NC(=O)c1sc2nccc3c2c1NC(=O)N3c1ccnc(C(C)C)c1 [Example 337, N-((1R,2R)-2-Acrylamidocyclopentyl)-5-(2-isopropylpyridin-4-yl)-4-oxo-4,5-dihydro-3H-1-thia-3,5,8-triazaacenaphthylene-2-carboxamide] | 6.42
13 | C=CC(=O)N[C@@H]1CCCC[C@H]1NC(=O)c1sc2nccc3c2c1NC(=O)N3c1cnc(Oc2ccccc2)nc1 [Example 338, N-((1R,2R)-2-Acrylamidocyclohexyl)-4-oxo-5-(2-phenoxypyrimidin-5-yl)-4,5-dihydro-3H-1-thia-3,5,8-triazaacenaphthylene-2-carboxamide] | 6.39
14 | C=CC(=O)N[C@@H]1CCC[C@H]1NC(=O)c1sc2nccc3c2c1NC(=O)N3c1ccnc(-c2ccccn2)c1 [Example 342, 5-([2,2′-Bipyridin]-4-yl)-N-((1R,2R)-2-acrylamidocyclopentyl)-4-oxo-4,5-dihydro-3H-1-thia-3,5,8-triazaacenaphthylene-2-carboxamide] | 6.12
15 | C=CC(=O)N[C@H]1CCC[C@H]1NC(=O)c1sc2nccc3c2c1NC(=O)N3c1ccc(Oc2cccnc2C)cc1C [Example 367, N-((1R,2S)-2-acrylamidocyclopentyl)-5-(2-methyl-4-((2-methylpyridin-3-yl)oxy)phenyl)-4-oxo-4,5-dihydro-3H-1-thia-3,5,8-triazaacenaphthylene-2-carboxamide] | 7.54
16 | C=CC(=O)N[C@H]1CCC[C@H]1NC(=O)c1sc2nccc3c2c1NC(=O)N3c1ccc(Oc2cccc(C)n2)cc1C [Example 368, N-((1R,2S)-2-acrylamidocyclopentyl)-5-(2-methyl-4-((6-methylpyridin-2-yl)oxy)phenyl)-4-oxo-4,5-dihydro-3H-1-thia-3,5,8-triazaacenaphthylene-2-carboxamide] | 8.13
17 | C=CC(=O)N[C@H]1CCC[C@H]1NC(=O)c1sc2nccc3c2c1NC(=O)N3c1ccc(Oc2cccc(C)n2)cc1 [Example 369, N-((1R,2S)-2-Acrylamidocyclopentyl)-5-(4-((6-methylpyridin-2-yl)oxy)phenyl)-4-oxo-4,5-dihydro-3H-1-thia-3,5,8-triazaacenaphthylene-2-carboxamide] | 8.06
18 | C=CC(=O)N[C@H]1CCC[C@H]1NC(=O)c1sc2nccc3c2c1NC(=O)N3c1ccc(Oc2ccc(C)nc2)cc1 [Example 370, N-((1R,2S)-2-Acrylamidocyclopentyl)-5-(4-((6-methylpyridin-3-yl)oxy)phenyl)-4-oxo-4,5-dihydro-3H-1-thia-3,5,8-triazaacenaphthylene-2-carboxamide] | 7.79
19 | C=CC(=O)N[C@H]1CCC[C@H]1NC(=O)c1sc2nccc3c2c1NC(=O)N3c1ccc(Oc2cccnc2C)cc1 [Example 372, N-((1R,2S)-2-Acrylamidocyclopentyl)-5-(4-((2-methylpyridin-3-yl)oxy)phenyl)-4-oxo-4,5-dihydro-3H-1-thia-3,5,8-triazaacenaphthylene-2-carboxamide] | 7.93
20 | C=CC(=O)N[C@H]1CCC[C@H]1NC(=O)c1sc2nccc3c2c1NC(=O)N3c1ccnc(C2CCC2)c1 [Example 376, N-((1R,2S)-2-Acrylamidocyclopentyl)-5-(2-cyclobutylpyridin-4-yl)-4-oxo-4,5-dihydro-3H-1-thia-3,5,8-triazaacenaphthylene-2-carboxamide] | 7.81
21 | C=CC(=O)N[C@@H]1CCC[C@H]1NC(=O)c1sc2nccc3c2c1NC(=O)N3c1ccnc(C2CCC2)c1 [Example 379, N-((1R,2R)-2-Acrylamidocyclopentyl)-5-(2-cyclobutylpyridin-4-yl)-4-oxo-4,5-dihydro-3H-1-thia-3,5,8-triazaacenaphthylene-2-carboxamide] | 6.80
22 | C=CC(=O)N[C@H]1CCC[C@H]1NC(=O)c1sc2nccc3c2c1NC(=O)N3c1ccc(O[C@H]2CCOC2)cc1C [Example 383, N-((1R,2S)-2-Acrylamidocyclopentyl)-5-(2-methyl-4-(((S)-tetrahydrofuran-3-yl)oxy)phenyl)-4-oxo-4,5-dihydro-3H-1-thia-3,5,8-triazaacenaphthylene-2-carboxamide] | 7.45
23 | C=CC(=O)N[C@H]1CCC[C@H]1NC(=O)c1sc2nccc3c2c1NC(=O)N3c1ccc(Oc2ccc(C)nc2)cc1C [Example 384, N-((1R,2S)-2-Acrylamidocyclopentyl)-5-(2-methyl-4-((6-methylpyridin-3-yl)oxy)phenyl)-4-oxo-4,5-dihydro-3H-1-thia-3,5,8-triazaacenaphthylene-2-carboxamide] | 7.54

same assay, conditions: read-out: BTK_I_binding pIC50 (converted)

Row | SMILES | IC50 [nM]
24 | N[C@H]1CCC[C@H]1NC(=O)c1sc2nccc3c2c1NC(=O)N3c1cc(-c2ccccc2)cnn1 [Example 349, N-((1R,2S)-2-Aminocyclopentyl)-4-oxo-5-(5-phenylpyridazin-3-yl)-4,5-dihydro-3H-1-thia-3,5,8-triazaacenaphthylene-2-carboxamide] | > 1000
25 | C=CC(=O)N[C@@H]1CCC[C@H](NC(=O)c2sc3nccc4c3c2NC(=O)N4c2ccnc(-c3ccccc3)c2)C1 [Example 351, N-((1S,3R)-3-Acrylamidocyclohexyl)-4-oxo-5-(2-phenylpyridin-4-yl)-4,5-dihydro-3H-1-thia-3,5,8-triazaacenaphthylene-2-carboxamide] | > 1000
